Experimental data taken from patent US20220400680A1, “USE OF ACYLCYANAMIDES OR SALTS THEREOF FOR REGULATING PLANT GROWTH” (Alzchem Trostberg GmbH, priority 2019, published 2022).

Legend:
[1] = system: Grape, type Pinot Noir (C4); experiment: Greenhouse test, cut wine sprouts C4 dipped in test solution, bud development stage; format: in vivo, Vitis vinifera subsp. vinifera; parameters: key to Bud development stage, wine sprouts C4: Stage 0: Buds unchanged; Stage 1: Buds slightly swollen, first green tips visible; Stage 2: strongly swollen, green buds; Stage 3: Buds before breaking open, leaf or flower root already visible; Stage 4: Flower buds fully developed, but still closed, white petals already visible. In the case of the grapevine, stage 4 was the unfolding of the first leaves; Stage 5: Flowers fully open or, in the case of grapevine, unfolding of the flower roots (“Gescheine”) on the fully leafed sprouts; details: for Dormancy-breaking effect according to the definition, wine C4: stage 4 reached or exceeded after 36 days vs negative control
Description: Greenhouse tests were conducted using cut fruit tree branches placed in water jars and maintained under controlled conditions with temperature regulation at approximately 22° C. and natural lighting. C4: Grape, Type Pinot Noir Grape: Vitis vinifera subsp. vinifera type Pinot Noir is an important and high quality red wine type that has existed for possibly 2000 years. It is cultivated all over the world because the type produces high quality red wines and has sufficient winter frost resistance. The type requires early and good areas with deep, warm, medium-heavy and fertile soils with good water supply. Pinot Noir produces regular, medium-high to high yields. However, there are a large number of clones that differ in yield, berry size and looseness. […] The test solutions were prepared directly, i.e. without intermediate preparation of a concentrate. For each of the test substances A-1 to A-13, an aqueous solution of 0.15 mol of the test substance and 0.15 g BreakThru® OE-446 was prepared and filled up to a total of 500 g with water. Of bis-cyanamides A-14 and A-15, 0.075 mol each was filled up to 500 g in an analogous manner. These test solutions (in combination with the above 4 species/types Cx) were given the test numbers Cx-A1 to Cx-A15. […] This was done with the following evaluation scale: • Stage 0: […] Flower buds fully developed, but still closed, white petals already visible. […] Flowers fully open or, in the case of grapevine, unfolding of the flower roots (“[…]”) on the fully leafed sprouts.

[2] = system: Table apple, type Zabergäu-Renette (C2); experiment: Greenhouse test, cut apple branches C2 dipped in test solution, bud development stage; format: in vivo, Malus domestica; parameters: key to Bud development stage, apple branches C2: Stage 0: Buds unchanged; Stage 1: Buds slightly swollen, first green tips visible; Stage 2: strongly swollen, green buds; Stage 3: Buds before breaking open, leaf or flower root already visible; Stage 4: Flower buds fully developed, but still closed, white petals already visible. In the case of the grapevine, stage 4 was the unfolding of the first leaves; Stage 5: Flowers fully open or, in the case of grapevine, unfolding of the flower roots (“Gescheine”) on the fully leafed sprouts
Description: Greenhouse tests were conducted using cut fruit tree branches placed in water jars and maintained under controlled conditions with temperature regulation at approximately 22° C. and natural lighting. C2: Table Apple, Type […] Table apple: Malus domestica type […] first developed in 1885 as a chance seedling in Hausen a.d. Zaber/Baden-Württemberg and initially grown as 'Hausener Graue […]'. No defined storage type; requires heavy soils (loam). Tree growth initially strong with oblique upright leading branches, later medium with flat branches. Crown broad and flat-spherical with flat fruiting wood. Leaves large, broad oval and with clearly separated tip. Triploid type with late and long-lasting flowering. Yield starting early, medium high and somewhat alternate. […] The test solutions were prepared directly, i.e. without intermediate preparation of a concentrate. For each of the test substances A-1 to A-13, an aqueous solution of 0.15 mol of the test substance and 0.15 g BreakThru® OE-446 was prepared and filled up to a total of 500 g with water. Of bis-cyanamides A-14 and A-15, 0.075 mol each was filled up to 500 g in an analogous manner. These test solutions (in combination with the above 4 species/types Cx) were given the test numbers Cx-A1 to Cx-A15. […] This was done with the following evaluation scale: • Stage 0: […] Flower buds fully developed, but still closed, white petals already visible. […] Flowers fully open or, in the case of grapevine, unfolding of the flower roots (“[…]”) on the fully leafed sprouts.

[3] = system: Table cherry, type Burlat (C3); experiment: Greenhouse test, cut cherry branches C3 dipped in test solution, bud development stage; format: in vivo, Prunus avium; parameters: key to Bud development stage, cherry branches C3: Stage 0: Buds unchanged; Stage 1: Buds slightly swollen, first green tips visible; Stage 2: strongly swollen, green buds; Stage 3: Buds before breaking open, leaf or flower root already visible; Stage 4: Flower buds fully developed, but still closed, white petals already visible. In the case of the grapevine, stage 4 was the unfolding of the first leaves; Stage 5: Flowers fully open or, in the case of grapevine, unfolding of the flower roots (“Gescheine”) on the fully leafed sprouts; details: for Dormancy-breaking effect according to the definition, cherry C3: stage 4 reached or exceeded after 27 days vs negative control
Description: Greenhouse tests were conducted using cut fruit tree branches placed in water jars and maintained under controlled conditions with temperature regulation at approximately 22° C. and natural lighting. C3: Table Cherry, Type Burlat Table cherry: Prunus avium type Bigarreau Burlat or […] is a strong-growing somewhat sparse growing sweet cherry tree with horizontal side sprouts. The type has been known since 1930 and is one of the most important types in commercial cultivation. […] Medium but regular yields identify the type as a secondary type for early and dry areas. […] The test solutions were prepared directly, i.e. without intermediate preparation of a concentrate. For each of the test substances A-1 to A-13, an aqueous solution of 0.15 mol of the test substance and 0.15 g BreakThru® OE-446 was prepared and filled up to a total of 500 g with water. Of bis-cyanamides A-14 and A-15, 0.075 mol each was filled up to 500 g in an analogous manner. These test solutions (in combination with the above 4 species/types Cx) were given the test numbers Cx-A1 to Cx-A15. […] This was done with the following evaluation scale: • Stage 0: […] Flower buds fully developed, but still closed, white petals already visible. […] Flowers fully open or, in the case of grapevine, unfolding of the flower roots (“[…]”) on the fully leafed sprouts.

[4] = system: Table apple, type Boiken apple (C1); experiment: Greenhouse test, cut apple branches C1 dipped in test solution, bud development stage; format: in vivo, Malus domestica; parameters: key to Bud development stage, apple branches C1: Stage 0: Buds unchanged; Stage 1: Buds slightly swollen, first green tips visible; Stage 2: strongly swollen, green buds; Stage 3: Buds before breaking open, leaf or flower root already visible; Stage 4: Flower buds fully developed, but still closed, white petals already visible. In the case of the grapevine, stage 4 was the unfolding of the first leaves; Stage 5: Flowers fully open or, in the case of grapevine, unfolding of the flower roots (“Gescheine”) on the fully leafed sprouts; details: for Good to very good dormancy-breaking effect, apple C1: stage 4 reached or exceeded after 27 days vs negative control; for Dormancy-breaking effect according to the definition, apple C1: stage 4 reached or exceeded after 36 days vs negative control
Description: Greenhouse tests were conducted using cut fruit tree branches placed in water jars and maintained under controlled conditions with temperature regulation at approximately 22° C. and natural lighting. C1: Table Apple, Type Boiken Apple Table apple: Malus domestica type Boiken first described in 1828 in Bremen after Deichvogt Boiken. Apple type for rough locations and for almost every soil suitable scattered fruit type, whereby heavy soils and not too warm locations are required. Tree growth initially strong, later medium. Older crowns become broadly spherical and are loosely branched. Flowering starting medium-late and long lasting, petals large with little pink. Yield starting late (October) and irregular; with long shelf life and pressure resistance. […] The test solutions were prepared directly, i.e. without intermediate preparation of a concentrate. For each of the test substances A-1 to A-13, an aqueous solution of 0.15 mol of the test substance and 0.15 g BreakThru® OE-446 was prepared and filled up to a total of 500 g with water. Of bis-cyanamides A-14 and A-15, 0.075 mol each was filled up to 500 g in an analogous manner. These test solutions (in combination with the above 4 species/types Cx) were given the test numbers Cx-A1 to Cx-A15. […] This was done with the following evaluation scale: • Stage 0: […] Flower buds fully developed, but still closed, white petals already visible. […] Flowers fully open or, in the case of grapevine, unfolding of the flower roots (“[…]”) on the fully leafed sprouts.

[5] = T1 (14 d), 0.15 mol (A-14, A-15: 0.075 mol) per 500 g solution

Structure (SMILES) | Bud development stage, wine sprouts C4 [1, 5] | Bud development stage, wine sprouts C4 ([1]; T2 (16 d)) | Bud development stage, wine sprouts C4 ([1]; T3 (21 d)) | Bud development stage, wine sprouts C4 ([1]; T4 (27 d)) | Bud development stage, wine sprouts C4 ([1]; T5 (36 d)) | Bud development stage, wine sprouts C4 ([1]; T6 (56 d)) | Bud development stage, apple branches C2 [2, 5] | Bud development stage, apple branches C2 ([2]; T2 (16 d)) | Bud development stage, apple branches C2 ([2]; T3 (21 d)) | Bud development stage, apple branches C2 ([2]; T4 (27 d)) | Bud development stage, apple branches C2 ([2]; T5 (36 d)) | Bud development stage, apple branches C2 ([2]; T6 (56 d)) | Bud development stage, cherry branches C3 [3, 5] | Bud development stage, cherry branches C3 ([3]; T2 (16 d)) | Bud development stage, cherry branches C3 ([3]; T3 (21 d)) | Bud development stage, cherry branches C3 ([3]; T4 (27 d)) | Bud development stage, cherry branches C3 ([3]; T5 (36 d)) | Bud development stage, cherry branches C3 ([3]; T6 (56 d)) | Bud development stage, apple branches C1 [4, 5] | Bud development stage, apple branches C1 ([4]; T2 (16 d)) | also measured
N#CNC(=O)c1ccccc1.[Na] [Example A-4, Sodium benzoyl cyanamide] | 0 | 0 | 0 | 3 | 5 | 5 | 0 | 0 | 0 | 1 | 2 | 2 | 1 | 2 | 4 | 4 | 5 | 5 | 1 | 1 | Dormancy-breaking effect according to the definition, wine C4 [1]: dormancy-breaking effect; Good to very good dormancy-breaking effect, cherry C3 ([3]; stage 4 reached or exceeded after 21 days vs negative control): good to very good dormancy-breaking effect; Dormancy-breaking effect according to the definition, cherry C3 [3]: dormancy-breaking effect; Bud development stage, apple branches C1 ([4]; T3 (21 d)): 1; Bud development stage, apple branches C1 ([4]; T4 (27 d)): 2; Bud development stage, apple branches C1 ([4]; T5 (36 d)): 3; Bud development stage, apple branches C1 ([4]; T6 (56 d)): 4
CCCC(=O)NC#N.[Na] [Example A-6, Sodium butyryl cyanamide] | 0 | 0 | 0 | 1 | 2 | 5 | 0 | 0 | 1 | 2 | 5 | 5 | 1 | 1 | 3 | 5 | 5 | 5 | 2 | 3 | Dormancy-breaking effect according to the definition, apple C2 ([2]; stage 4 reached or exceeded after 36 days vs negative control): dormancy-breaking effect; Dormancy-breaking effect according to the definition, cherry C3 [3]: dormancy-breaking effect; Bud development stage, apple branches C1 ([4]; T3 (21 d)): 4; Bud development stage, apple branches C1 ([4]; T4 (27 d)): 5; Bud development stage, apple branches C1 ([4]; T5 (36 d)): 5; Bud development stage, apple branches C1 ([4]; T6 (56 d)): 5; Good to very good dormancy-breaking effect, apple C1 [4]: good to very good dormancy-breaking effect; Dormancy-breaking effect according to the definition, apple C1 [4]: dormancy-breaking effect
CC(C)(C)C(=O)NC#N.[Na] [Example A-8, Sodium pivaloyl cyanamide] | 0 | 0 | 0 | 1 | 4 | 5 | 0 | 0 | 0 | 1 | 2 | 4 | 0 | 0 | 1 | 2 | 4 | 5 | 0 | 0 | Dormancy-breaking effect according to the definition, wine C4 [1]: dormancy-breaking effect; Bud development stage, apple branches C1 ([4]; T3 (21 d)): 2; Bud development stage, apple branches C1 ([4]; T4 (27 d)): 4; Bud development stage, apple branches C1 ([4]; T5 (36 d)): 4; Bud development stage, apple branches C1 ([4]; T6 (56 d)): 4; Good to very good dormancy-breaking effect, apple C1 [4]: good to very good dormancy-breaking effect; Dormancy-breaking effect according to the definition, apple C1 [4]: dormancy-breaking effect
